Measured values: US20100144708A1, “HETEROCYCLIC COMPOUNDS CONTAINING NITROGEN ATOMS OR PHARMACEUTICALLY ACCEPTABLE SALTS THEREOF, PROCESS FOR THE PREPARATION THEREOF AND PHARMACEUTICAL COMPOSITION COMPRISING THE SAME FOR TREATMENT OF CANCER” (Korea Research Instititute of Bioscience and Biotechnology, priority 2006, published 2010)

Experiments:
ACHN (kidney cancer) = experiment: Test for inhibition of tumor cell growth (SRB), ACHN; format: cell-based, Human; details: Homo sapiens, ACHN; 48 hours, SRB staining
Procedure, shortened: (§1)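 Cells seeded in RPMI 1640 with 5% FBS, exposed to compound (final […], units as printed) for 48 hours at 37° C with 5% CO2, including a time-zero plate. TCA-fixed, SRB-stained, absorbance at 540 nm as percent of control; GI50 is the 50% growth-inhibition concentration.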

[1] = system: MBA-MB-231 (breast cancer); experiment: Test for inhibition of tumor cell growth (SRB), MBA-MB-231; format: cell-based, Human; details: Homo sapiens; 48 hours, SRB staining
Procedure, shortened: as §1

NUGC-3 (gastric cancer) = experiment: Test for inhibition of tumor cell growth (SRB), NUGC-3; format: cell-based, Human; details: Homo sapiens, NUGC-3; 48 hours, SRB staining
Procedure, shortened: as §1

[2] = system: human prostate cancer cell line, PC-3 cells; experiment: Western blot analysis in PC-3 cells; format: cell-based; details: 0, 2, and 5 uM, 24 hours
Description: 4×10^6 of human prostate cancer cell line, PC-3 cells were cultured in 100 mm diameter-culture dishes with RPMI media containing 5% FBS for one day, and then treated with the compound prepared in Example 55 at concentrations of 0, 2, and 5 uM for 24 hours, respectively. Then, the cells were carefully washed with 10[…] of PBS twice, and 1 ml of PBS containing protease inhibitor cocktail (Roche, complete™-mini) (1 tablet/50[…] PBS) was added to the each dish. The cells were collected and sonicated. The sonicated cells were centrifuged using a microcentrifuge at 12000 rpm for 20 minutes, and the supernatant was collected. Then, the amount of protein was determined using a Bradford dye reagent (Bio-Rad), and after running 20[…] of the protein on an SDS-PAGE gel, the protein band was transferred to a nitrocellulose membrane (Bio-Rad). Subsequently, the amounts of each protein were analyzed using primary antibodies and secondary antibodies-HRP (horseradish peroxidase) that are specific to each protein to be tested (Amersham or Bio-Rad), and an ECL chemiluminescence reagent (Amersham).

[3] = system: human prostate cancer cell line PC-3; experiment: Test for tumor growth inhibition in animal model (PC-3 xenograft); format: in vivo; details: intraperitoneal; for effect of inhibiting tumor growth / reduction of tumor weight: final day (day 21)
Description: Female S.P.F BALB/c nude mice (7-week-old) were grafted with 3×10^7 cells/□ of human prostate cancer cell line PC-3, and then intraperitoneally administered with the compound prepared in Example 55 at a daily dosage of 30 mg/kg 20 times. A positive control group was intraperitoneally administered with adriamycin at a daily dosage of 2 mg/kg 10 times once every two days.
The changes in their body weight are shown in FIG. 1, the changes in tumor size are shown in FIG. 2, and the tumor weights measured on the final day (day 21) are shown in FIG. 3.

[4] = system: human prostate cancer cell line, PC-3 cells; experiment: Flow cytometric analysis of apoptosis (PI staining) with NAC; format: cell-based; details: 5 uM NAC for 3 hours, then compound 5 uM for 24 hours; compared to cells treated with only the compound
Description: 5×10^5 of human prostate cancer cell line, PC-3 cells were cultured in 60 mm diameter-culture dishes with RPMI 1640 media containing 5% FBS in an incubator supplied with 5% CO2 at 37° C. for one day, and then treated with 5 uM NAC (N-acetylcysteine, Sigma) for 3 hours. Then, the cells were treated with the compound prepared in Example 55 at concentrations of 5 uM, cultured for 24 hours. Subsequently, the cells were treated with 0.1% trypsin and detached. The detached cells were transferred to a 15[…] conical tube, and centrifuged at 200×g for 5 minutes to precipitate the cells. Then, the supernatant was removed. 0.5[…] of PBS solution containing 0.1 mg/□ RNase A was added thereto, so as to resuspend the cells. The cells were treated with a PI (propidium iodide) DNA staining solution in a concentration of 50[…]/□ to stain the DNA in the cells for 30 or more minutes. The PI-stained cells were e xcited using a flow cytometer (Becton Dickinson) at 488 nm by a laser beam, and an emission wavelength of 588 nm was represented by a histogram, and then quantitatively analyzed to determine the amount of DNA in the cells.

PC-3 (prostate cancer) = experiment: Test for inhibition of tumor cell growth (SRB), PC-3; format: cell-based, Human; details: Homo sapiens; 48 hours, SRB staining; read-out: GI50 PC-3 (prostate ancer)
Procedure, shortened: as §1

[5] = 30 mg/kg daily, 20 times, vs vehicle-control, p<0.001

Row | GI50 (ACHN (kidney cancer)) [µg/mL] | GI50 [1] [µg/mL] | GI50 (NUGC-3 (gastric cancer)) [µg/mL] | GI50 (PC-3 (prostate cancer)) [µg/mL] | SMILES | amount of Bcl2 [2] | amount of RhoB [2] | amount of c-abl [2] | amount of p53 [2] | amount of phosphorylated p53 [2] | effect of inhibiting tumor growth [3, 5] [%] | reduction of tumor weight [3, 5] [%] | degree of apoptosis [4] | deaths ([3]; 2 mg/kg Q2D, 10 times) | effect of inhibiting tumor growth ([3]; 2 mg/kg Q2D, 10 times, p<0.01) [%] | reduction of tumor weight ([3]; 2 mg/kg Q2D, 10 times, p<0.05) [%]
1 | 3.84 | 4.37 | 0.9 | 0.41 | CCCCCCCCCCCC(=O)N1CC[N+](CC)(Cc2cccc(C)c2)CC1 [Example 55, 4-dodecanoyl-1-ethyl-1-(3-methylbenzyl)piperazin-1-ium bromide] | down-regulated | increased | increased | sharply increased | sharply increased | 84.0 | 79.5 | greatly decreased | – | – | –
2 | 1.1 | 1.48 | 0.94 | 0.45 | CCCCCCCCCCCCCC(=O)N1CCC[N+](C)(Cc2ccc(F)cc2)CC1 (stereo not shown) [Example 133, 1-(4-fluorobenzyl)-1-methyl-4-tetradecanoyl-1,4-diazepan-1-ium bromide] | – | – | – | – | – | – | – | – | – | – | –
3 | – | – | – | – | COc1cccc2c1C(=O)c1c(O)c3c(c(O)c1C2=O)C[C@@](O)(C(=O)CO)C[C@@H]3O[C@H]1C[C@H](N)[C@H](O)[C@H](C)O1 [adriamycin] | – | – | – | – | – | – | – | – | four | 74.4 | 69.8
